Measured values as given in patent US5346814A, “Method of detecting cell response to cell-damaging energy” (Board of Trustees of the Leland Stanford Jr. University, priority 1992, dated 1994).
Entries after “also recorded” stand apart in the source; their conditions may differ.

Legend:
HSP70 = assay: Western blot of HSP70 polypeptide levels in RIF-1 cells (N-27 antibody); assay type: cell-based, murine
Experimental: Western Blot Analysis In general, following separation of cellular proteins by sodium dodecyl sulfate (SDS)-polyacrylamide gel electrophoresis, separated proteins were electroblotted onto a nitrocellulose membrane using a 25 mM Tris-HCl/192 mM glycine/20% (v/v) methanol transfer buffer (pH 8.3) in a Trans-Blot apparatus (Bio-Rad, Richmond, Calif.) at 15 V and 100 mA for 12 to 14 h. The blot was blocked in 5% nonfat dry milk in TBS (50 mM Tris containing 0.2 M NaCl, pH 7.4) at room temperature for 1h; this step and all following steps were done with continuous agitation. The primary antibody was diluted 1:200 in 3% nonfat dry milk in TBS, and the blot was incubated for 16 to 24 h at 4° C. […]
RIF-1 cells were grown for 7 days in the presence of 2% DMSO as in Example 9. After the seventh day, cells were heated at 45° C. for 10 min, and were analyzed either immediately by SDS gel/Western blot analysis, or after an additional 18 hour growth period at 37° C. to allow synthesis of heat-inducible HSP70 polypeptides. […]
In a parallel set of experiments, heating of the mock- and gene-transfectedcells was performed in the presence or absence of 20 mM TEA, and the expression of HSP70 proteins was determined by immunoblot analysis, using the HSP70-specific N-27 antibody as in Example 10.

RIF-1 cells = assay: Clonogenic survival assay after heating at 45° C., RIF-1 cells; assay type: cell-based, murine
Experimental: RIF-1 cells were grown at 37° C. in RPMI-1640 medium supplemented with 10% FBS and 2% (v/v) DMSO (dimethylsulfoxide). After seven days of growth, the medium was replaced with DMSO-free medium, and the heat sensitivity of the cells in the presence and absence of 20 mM TEA was determined by clonogenic assay as in Example 4. The results are shown in FIGS. 7A and 7B, with survival data for non-DMSO-treated RIF-1 cells shown for comparison.

[1] = system: K+ channel proteins recognized by antibody ShA-3; assay: Western blot of K+ channel proteins in RIF-1 cells (ShA-3 antibody); assay type: cell-based, murine; conditions: RIF-1 cells grown in 2% DMSO for 3, 5, 7 days
Experimental: Western Blot Analysis In general, following separation of cellular proteins by sodium dodecyl sulfate (SDS)-polyacrylamide gel electrophoresis, separated proteins were electroblotted onto a nitrocellulose membrane using a 25 mM Tris-HCl/192 mM glycine/20% (v/v) methanol transfer buffer (pH 8.3) in a Trans-Blot apparatus (Bio-Rad, Richmond, Calif.) at 15 V and 100 mA for 12 to 14 h. The blot was blocked in 5% nonfat dry milk in TBS (50 mM Tris containing 0.2 M NaCl, pH 7.4) at room temperature for 1h; this step and all following steps were done with continuous agitation. The primary antibody was diluted 1:200 in 3% nonfat dry milk in TBS, and the blot was incubated for 16 to 24 h at 4° C. The blot was washed with TBS three times for 10 min per wash, and incubated for 2 h at room temperature with a 1:500 dilution of alkaline phosphatase-conjugated antispecies antibody. After washing with TBS as above, the blot was developed by incubation for 20 min in a solution containing 3-hydroxy-2-naphthoic acid 2,4-dimethylanilide phosphate (1 μg/ml ) and fast red (2 μg/ml) in TBS buffer. The developed blot was washed in distilled, deionized water to stop the color reaction.
RIF-1 and TR-4 cells were grown in exponential phase at 37° C. in RPMI-1640 medium supplemented with 10% FBS. […]

[2] = system: voltage-dependent potassium currents in RIF-1 cells; assay: Whole-cell voltage-clamp recording of heat-inducible potassium currents in DMSO-treated RIF-1 cells; assay type: cell-based, murine; conditions: RIF-1 cells grown in 2% DMSO
Experimental: (§1) Voltage-Clamp Recordings.
The potassium currents of RIF-1 cells grown in the presence of 2% DMSO as above (Example 7) were determined in the presence and absence of 20 mM TEA following heating of the cells at 45° C. for 10 minutes, as in Example 2.

[3] = system: voltage-dependent potassium currents in A549 cells; assay: Whole-cell voltage-clamp recording of radiation-induced K+ currents in A549 cells; assay type: cell-based, human
Experimental: as §1
In a second study, to determine whether the induced currents -were affected by the presence of TEA, A549 cells were exposed to 150 cGy of 137Cs γ-irradiation, and the radiation-induced currents were measured under three different conditions: (a) directly after irradiation, (b) after replacement of the bath solution with medium containing 20 mM TEA and (c) after the TEA solution of step (b) had been replaced with TEA-free medium.
A549 cells grown as described in the Materials and Methods section were preincubated for 1 h in medium containing 20 mM N-acetylcysteine (NAC) (Schreck et al., 1991). The cells, still in the presence of NAC, were then irradiated (150 cGy), and the induced currents were recorded. The results are shown in FIG. 19 (open circles, irradiation without NAC preincubation; open triangles, preincubation with 20 mM NAC; solid circles, non-irradiated control cells).

[4] = system: voltage-dependent potassium currents in A549 cells; assay: Whole-cell voltage-clamp recording of K+ currents in non-irradiated A549 cells after chemical treatment; assay type: cell-based, human
Experimental: Voltage-Clamp Recordings. Whole-cell recording was performed by voltage clamp analysis as described by Hamill et al. (1981). In general, prior to whole cell recording, the cell medium was replaced with serum-free medium to ensure a better giga-ohm seal. […] Glass electrodes having a tip resistance of 3-7 Mohms were sylgarded (with Sylgard, Dow Chemical) and backfilled with a solution containing 140 mM KCl, 2 mM MgCl2, 11 mM EGTA, 1 mM CaCl2, and 10 mM Hepes, pH 7.2. […] A test pulse of 20 mV was applied, and the cell was then aspirated against the tip of the microelectrode. The membrane seal resistance was determined from the reduction in voltage of the test pulse.
Membrane currents were filtered at 2 kHz using a 4-pole low pass Bessel filter before sampling with a 12-bit digital-analog converter controlled by a Labmaster board (Scientific Solutions) in an IBM AT computer. Leakage currents were subtracted from the total currents measured at each voltage either by using a p,p/4 algorithm (Armstrong and Bezanilla, 1974) built into the software (INDEC Systems, Santa Cruz, Calif.), or after determining the linear component from the current-voltage (I-V) relation near the holding potential of -75 mV. The limit of sensitivity of the current measurements in these experiments was about 50-60 pA.

heat shock factor (HSF) = system: heat shock factor (HSF)
Experimental: To determine whether the presence of TEA during heating prevented the activation of heat shock factor (HSF), RIF-1 and TR-4 cells grown as in Example 1 were heated at 45° C. for 15-40 minutes in the presence or absence of 20 mM TEA in the medium. After being washed with fresh medium (no TEA), the cells were harvested, and gel retardation assays were performed as described by Zimarino et al. (1987), except that the electrophoresis was performed on a 4.5% native polyacrylamide gel in 0.5X TBE buffer (45 mM Tris-borate, 1 mM EDTA) at 140 V at room temperature for 2.5 h. The gel was fixed by soaking in 7% acetic acid for 5 min, rinsed briefly in distilled water, and dried on Whatman 3 MM chromatography paper. The gel was then autoradiographed by exposing Kodak XAR-2 film to the gels at -70° C. with intensifying screens (Cronex Lighting Plus, Dupont).

TR-4 cells = conditions: 20 mM TEA during 45° C. 40 min heating step and/or 12 h 37° C. incubation
Experimental: The development of thermotolerance in TR-4 cells in the presence or absence of 20 mM TEA was assessed by heating the cells at 45° C. for 40 min, followed by a 12 h incubation at 37° C. (Hahn and van Kersen, 1988), and assessment of cell survival following heating and clonogenic assay as described in Example 4. Five groups of TR-4 cells (a to e) were examined, differing only as to which steps of the procedure included TEA in the cell medium.

A549 cells = conditions: 20 mM TEA in cell medium during irradiation, doses greater than about 200 cGy
Experimental: γ-irradiation. Cells were irradiated at room temperature using a ^137 [Cs] source at a dose rate of 150 cGy/min. The ^137 [Cs] source consisted of a Mark I irradiator (model 30, 2000 Ci ^137 [Cs]) from J. L. Shepherd and Associates (Glendale, Calif.). Unless noted otherwise, the cells were incubated at 37° C. after irradiation for further characterization.
In another experiment, cell survival of A549 cells was measured as a function of ^137 Cs irradiation dosages (0-1000 cGy) in the presence or absence of 20 mM TEA in the cell medium during irradiation.

[5] = system: voltage-dependent potassium channel currents in TR-4 cells; conditions: 20 mM TEA in cell medium during current measurement; TR-4 cells heated 45° C. 10 min
Experimental: Voltage-Clamp Recordings. Whole-cell recording was performed by voltage clamp analysis as described by Hamill et al. (1981). In general, prior to whole cell recording, the cell medium was replaced with serum-free medium to ensure a better giga-ohm seal. Glass electrodes were prepared using a vertical pipette puller (model P30 from Sutter Instruments, Calif.). The tip diameter to be achieve depended upon the size of the cell-type being examined, but was generally between about 0.5 and 1 μm. Glass electrodes having a tip resistance of 3-7 Mohms were sylgarded (with Sylgard, Dow Chemical) and backfilled with a solution containing 140 mM KCl, 2 mM MgCl2, 11 mM EGTA, 1 mM CaCl2, and 10 mM Hepes, pH 7.2. […] The membrane seal resistance was determined from the reduction in voltage of the test pulse.
Membrane currents were filtered at 2 kHz using a 4-pole low pass Bessel filter before sampling with a 12-bit digital-analog converter controlled by a Labmaster board (Scientific Solutions) in an IBM AT computer. Leakage currents were subtracted from the total currents measured at each voltage either by using a p,p/4 algorithm (Armstrong and Bezanilla, 1974) built into the software (INDEC Systems, Santa Cruz, Calif.), or after determining the linear component from the current-voltage (I-V) relation near the holding potential of -75 mV. […]

`C[S+](C)[O-]` [DMSO, dimethylsulfoxide] was tested, and the “effect on level of cellular HSP70” value (HSP70; RIF-1 cells grown 7 days in 2% DMSO, heated 45° C. 10 min, analyzed directly or after 18 hour growth) was “no effect on the level of cellular HSP70”, the “heat resistance of cells cultured in DMSO” value (RIF-1 cells; RIF-1 cells cultured in 2% (v:v) DMSO for seven days, then heated at 45° C.) was “significantly more heat resistant” and the “expression of K+ channel proteins recognized by ShA-3 antibody” value [1] was “expressed at higher levels than in cells grown without DMSO; also recorded: increased with increasing duration of exposure”. For the same compound, the “voltage-dependent potassium currents in DMSO-cultured cells after heating” value ([2]; heated 45° C. 10 min) was “exhibited voltage-dependent potassium currents”.

For `CC(=O)N[C@@H](CS)C(=O)O` [N-acetylcysteine], the “effect on induction of potassium currents by irradiation” value ([3]; 20 mM, 1 h preincubation and present during 150 cGy irradiation) was “effective to substantially reduce current induction”.

`Cc1cn([C@H]2C[C@H](O)[C@@H](CO)O2)c(=O)[nH]c1=O` [[^3 H]thymidine] was tested, and the “induction of potassium currents” value ([4]; 2 μCi/ml for 16-18 hours prior to whole-cell recording) was “No potassium currents were observed”.

With `CC[N+](CC)(CC)CC.[Cl-]` [TEA, Tetraethylammonium chloride] the “inhibitory effect on expression of HSP70 (constitutive and inducible forms)” value (HSP70; 20 mM TEA during heating 10 min 45° C., ShakerB-transfected vs mock-transfected RIF-1 cells) was “greater in the cells transfected with the ShakerB gene than in mock transfected cells; also recorded: greater in the cells transfected with the ShakerB gene than in the mock-transfected cells”, the “effect on survival rate after heating” value (RIF-1 cells; 20 mM TEA during heating at 45° C. for 0-100 min, RIF-1 cells) was “no effect on the survival rate of the RIF-1 cells; also recorded: no effect on the survival rate of RIF-1 cells” and the “effect on heat resistance of DMSO-cultured cells” value (RIF-1 cells; 20 mM TEA in medium during heating, RIF-1 cells cultured 7 days in 2% DMSO) was “diminished heat resistance”. The “effect on heat-induced activation of HSF” value (heat shock factor (HSF)) was “eliminated most or all of the heat-induced activation of HSF”, the “effect on levels of activated HSF” value (heat shock factor (HSF)) was “no effect on the levels of activated HSF” and the “effect on development of thermotolerance” value (TR-4 cells) was “little effect on the development of thermotolerance”. The “effect on cytotoxicity of 137Cs irradiation” value (A549 cells) was “cytotoxicity was increased somewhat”, the “effect on heat-induced voltage-dependent potassium currents” value [5] was “abolished nearly all detectable current” and the “effect on radiation-induced potassium currents” value ([3]; 20 mM TEA after 150 cGy 137Cs irradiation) was “reversible inhibition; also recorded: could be inhibited by TEA”. For the same compound, the “effect on heat-induced currents in DMSO-cultured cells” value ([2]; 20 mM TEA in cell solution during current measurements) was “virtually abolished the currents”.

With `OO` [Hydrogen peroxide, hydrogen peroxide] the “induction of voltage-dependent potassium current” value ([4]; 3.0 μM final concentration in cell medium, measured within 30 seconds) was “sizeable voltage-dependent current”.
